# Source: patent publication US20240010726A1, “LFA-1 SIGNALLING MEDIATOR FOR USE IN CANCER THERAPY” (Universität Basel, priority 2020, published 2024)
# Columns and labels:
# [1] = system: focal adhesion kinase (FAK), TNF; experiment: FAK phosphorylation and TNF expression in activated PHA T cell blasts; type: cell-based, human; details: Mg^2+-restricted conditions
# Method: FIG. 2: Extracellular magnesium promotes memory-specific activation via LFA-1. Glycolytic switch of human EM CD8 T cells (a) and naïve CD8 T cells (b) subsets upon injection of anti-CD3 Ab only, or anti-CD3 and anti-CD28 Ab, was assessed by metabolic flux analysis in medium containing either 1.2 mM Mg^2+, 0 mM Mg^2+, or medium which was reconstituted from 0 mM to 1.2 mM Mg^2+ immediately prior to activation (0→1.2 mM Mg^2+). (a) Results for human effector memory (EM) and (b) for human naïve CD8 T cells. Glycolytic switch was quantified by subtracting […] measurements. (c) Flow cytometric analysis of surface activation markers on human EM CD8 T cells 24 hours after activation by plate-bound anti-CD3 Ab and soluble anti-CD28 Ab, in 1.2 mM and 0 mM Mg^2+ media, respectively. (d) Abundance of inflammatory cytokines in corresponding EM CD8 T cell culture supernatants, determined by CBA. (e) CD11a (LFA-1) surface expression on human naïve and EM CD8 T cells as well PHA T cell blasts. Flow cytometry-based assessment of total LFA-1 expression assessed by mAb TS2/4 (f), closed conformation of αL by mAb HI111 (g), extended conformation of LFA-1 by mAb Kim127 (h), open head-piece conformation of LFA-1 by mAb m24 (i), phosphorylation of focal adhesion kinase (FAK) […] as well TNF expression (k)±TCR-induced activation in different extracellular Mg^2+ concentrations. […]
# [2] = system: human EM CD8 T cells; experiment: Cytometric bead array of cytokines in EM CD8 T cell culture supernatants; type: cell-based; details: Mg^2+-restricted (0 mM) vs 1.2 mM Mg^2+; 24 h
# Method: FIG. 2: Extracellular magnesium promotes memory-specific activation via LFA-1. Glycolytic switch of human EM CD8 T cells (a) and naïve CD8 T cells (b) subsets upon injection of anti-CD3 Ab only, or anti-CD3 and anti-CD28 Ab, was assessed by metabolic flux analysis in medium containing either 1.2 mM Mg^2+, 0 mM Mg^2+, or medium which was reconstituted from 0 mM to 1.2 mM Mg^2+ immediately prior to activation (0→1.2 mM Mg^2+). (a) Results for human effector memory (EM) and (b) for human naïve CD8 T cells. Glycolytic switch was quantified by subtracting […] measurements. (c) Flow cytometric analysis of surface activation markers on human EM CD8 T cells 24 hours after activation by plate-bound anti-CD3 Ab and soluble anti-CD28 Ab, in 1.2 mM and 0 mM Mg^2+ media, respectively. (d) Abundance of inflammatory cytokines in corresponding EM CD8 T cell culture supernatants, determined by CBA. (e) CD11a (LFA-1) surface expression on human naïve and EM CD8 T cells as well PHA T cell blasts. Flow cytometry-based assessment of total LFA-1 expression assessed by mAb TS2/4 (f), closed conformation of αL by mAb HI111 (g), extended conformation of LFA-1 by mAb Kim127 (h), open head-piece conformation of LFA-1 by mAb m24 (i), phosphorylation of focal adhesion kinase (FAK) […] as well TNF expression (k)±TCR-induced activation in different extracellular Mg^2+ concentrations. (l) Flow cytometry-based assessment of LFA-1 with open-head piece conformation on human EM and naïve CD8 T cells using the open head-piece reporter mAb m24. (m) Assessment of glycolytic switch of EM CD8 T cells. (n) Assessment of glycolytic switch of naïve CD8 T cells. […] Cytokine concentrations in cell culture supernatants were determined using the LegendPlex cytrometric bead Array human […]) according to manufacturer's instructions.
compound,measurement,setting,value
"[Mg+2] [Mg^2+, Magnesium]",Phosphorylation of focal adhesion kinase (FAK),[1],decreased
same,IFNγ secretion,[2],decreased production
same,IL-2 secretion,[2],decreased production
same,TNF secretion,[2],decreased production
